Measured values taken from patent publication US4563527A, “Amidine compounds” (Torii & Co., Ltd., priority 1984, dated 1986).
Where two headings read alike, the source gives them in different places.

What was measured:
[1] = target: Thrombin (Homo sapiens, UniProt P00734); experiment: biochemical; details: read-out: ID50 thrombin
[2] = target: T1, C1s (Homo sapiens, UniProt P09871); experiment: Anti-C1s activity (hydrolysis of ATEE); assay type: biochemical; details: molar concentration inhibiting 50% of ATEE hydrolysis; read-out: ID50 C1s (Anti-C1 activity)
T1 sequence (P09871 438-688 limits assumed): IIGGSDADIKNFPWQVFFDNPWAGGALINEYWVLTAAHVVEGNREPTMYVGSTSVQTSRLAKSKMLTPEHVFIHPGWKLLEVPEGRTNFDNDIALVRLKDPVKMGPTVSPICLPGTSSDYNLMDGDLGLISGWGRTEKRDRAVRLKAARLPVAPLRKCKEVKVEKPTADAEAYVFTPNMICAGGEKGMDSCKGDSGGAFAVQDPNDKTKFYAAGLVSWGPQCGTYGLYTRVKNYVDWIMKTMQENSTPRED
T1 sequence (P09871 16-437 partner limits assumed): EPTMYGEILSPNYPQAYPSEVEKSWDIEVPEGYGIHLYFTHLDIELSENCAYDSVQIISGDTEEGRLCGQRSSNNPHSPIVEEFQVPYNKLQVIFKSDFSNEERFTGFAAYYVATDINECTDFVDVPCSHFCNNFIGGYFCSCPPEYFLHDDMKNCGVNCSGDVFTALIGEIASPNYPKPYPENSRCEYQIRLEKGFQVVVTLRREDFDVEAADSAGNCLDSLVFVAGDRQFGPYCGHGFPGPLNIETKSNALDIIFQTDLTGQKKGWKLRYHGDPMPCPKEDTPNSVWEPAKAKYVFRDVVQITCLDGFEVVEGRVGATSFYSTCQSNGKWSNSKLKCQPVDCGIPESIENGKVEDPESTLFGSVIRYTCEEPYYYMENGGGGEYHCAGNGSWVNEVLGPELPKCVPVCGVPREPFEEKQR
Method: The anti-C1 esterase (C1r, C1s) activity was determined according to the method of Okamura et al. [K. Okamura, M. Muramatsu and B. Fujii, Biochem. Biophys. Acta, 295, 252-257 (1973)]. The inhibition of complement mediated hemolysis was determined according to the method of Baker et al. [B. R. Baker and E. H. Erickson, J. Med. Chem. 12, 408-414 (1969)]. The figures in Table 2 have the following meanings:
C1s: Molar concentration of the test compound which inhibits 50% of the ability of C1s to hydrolyse ATEE (acetyltyrosin ethyl ester) (ID50).

[3] = test system: Kallikrein; experiment: Anti-kallikrein activity (hydrolysis of TAME); assay type: biochemical; details: molar concentration inhibiting 50% of TAME hydrolysis; read-out: ID50 kallikrein
Method: (§1) The anti-trypsin, anti-plasmin, anti-kallikrein and anti-thrombin activities were determined according to the method of Muramatsu et al. [M. Muramatus, T. Onishi, S. Makino, Y. Hayashi and S. Fujii, J. of Biochem., 58, 214 (1965)]. The data summarized in Table 1 are expressed in terms of molar concentration (ID50) of the test compound which inhibits 50% of the activity of each enzyme to hydrolyze TAME (tosylalginine methyl ester). The compound No. corresponds to the compound number shown in Examples.

[4] = test system: complement; experiment: Inhibition of complement mediated hemolysis; assay type: cell-based
Method: The complement mediated hemolysis is widely used as a means to determine the titration of complement. The principle of this method is based on the fact that hemolysis is caused by the activation of complement, when the latter is added to a complex (immune complex) of erythrocytes and the antibody thereof. The degree of hemolysis varies in proportion to the amount of complement added. Therefore, when a known amount of complement admixed with a C1 esterase inhibitor is used, the hemolysis must be suppressed in proportion to the inhibitory activity.
The anti-C1 esterase (C1r, C1s) activity was determined according to the method of Okamura et al. [K. Okamura, M. Muramatsu and B. Fujii, Biochem. Biophys. […] The figures in Table 2 have the following meanings: […]

[5] = target: T2, C1r (Homo sapiens, UniProt P00736); experiment: biochemical; details: molar concentration inhibiting 50% of AAME hydrolysis; read-out: ID50 C1r (Anti-C1 activity)
T2 sequence (P00736 464-705 limits assumed): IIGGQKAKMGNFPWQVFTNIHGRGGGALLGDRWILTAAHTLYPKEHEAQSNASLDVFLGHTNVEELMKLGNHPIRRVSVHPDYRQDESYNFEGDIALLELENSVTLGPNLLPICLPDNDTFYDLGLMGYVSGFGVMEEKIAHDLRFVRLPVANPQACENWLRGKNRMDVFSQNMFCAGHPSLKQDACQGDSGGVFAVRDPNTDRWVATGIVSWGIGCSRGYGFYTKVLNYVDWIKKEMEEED
T2 sequence (P00736 18-463 partner limits assumed): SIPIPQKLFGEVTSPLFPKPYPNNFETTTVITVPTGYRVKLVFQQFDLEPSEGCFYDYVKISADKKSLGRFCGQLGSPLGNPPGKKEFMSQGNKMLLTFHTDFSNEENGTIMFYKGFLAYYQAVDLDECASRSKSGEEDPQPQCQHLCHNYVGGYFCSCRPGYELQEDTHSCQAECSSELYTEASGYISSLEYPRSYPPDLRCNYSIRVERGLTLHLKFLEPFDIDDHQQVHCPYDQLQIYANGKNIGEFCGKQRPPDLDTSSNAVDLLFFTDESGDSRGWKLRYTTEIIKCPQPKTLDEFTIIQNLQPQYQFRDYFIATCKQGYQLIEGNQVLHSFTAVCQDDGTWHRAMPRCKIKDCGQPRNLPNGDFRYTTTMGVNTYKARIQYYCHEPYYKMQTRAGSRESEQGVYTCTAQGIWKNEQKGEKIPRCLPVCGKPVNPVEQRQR

[6] = target: T3, Trypsin (Bos taurus, UniProt P00760); experiment: Anti-trypsin activity (hydrolysis of TAME); assay type: biochemical; details: molar concentration inhibiting 50% of TAME hydrolysis; read-out: ID50 trypsin
T3 sequence (P00760 24-246): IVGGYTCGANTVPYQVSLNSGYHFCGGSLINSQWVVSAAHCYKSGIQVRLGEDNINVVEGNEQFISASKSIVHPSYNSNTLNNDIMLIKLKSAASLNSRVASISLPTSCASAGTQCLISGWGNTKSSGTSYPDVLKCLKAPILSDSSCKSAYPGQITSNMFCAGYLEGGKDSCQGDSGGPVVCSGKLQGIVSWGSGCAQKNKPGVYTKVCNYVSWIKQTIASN
Method: as §1

[7] = target: Plasmin (Homo sapiens, UniProt P00747); experiment: Anti-plasmin activity (hydrolysis of TAME); assay type: biochemical; details: molar concentration inhibiting 50% of TAME hydrolysis; read-out: ID50 plasmin
Sequence of Plasmin (P00747 581-810 limits assumed, species assumed): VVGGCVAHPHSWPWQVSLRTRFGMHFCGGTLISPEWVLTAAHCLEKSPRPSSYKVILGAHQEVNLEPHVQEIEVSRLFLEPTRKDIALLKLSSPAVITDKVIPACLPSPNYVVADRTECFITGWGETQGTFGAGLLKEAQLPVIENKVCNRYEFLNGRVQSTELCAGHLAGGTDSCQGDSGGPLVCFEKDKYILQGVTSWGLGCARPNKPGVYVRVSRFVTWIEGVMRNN
Sequence of Plasmin (P00747 97-580 partner limits assumed, species assumed): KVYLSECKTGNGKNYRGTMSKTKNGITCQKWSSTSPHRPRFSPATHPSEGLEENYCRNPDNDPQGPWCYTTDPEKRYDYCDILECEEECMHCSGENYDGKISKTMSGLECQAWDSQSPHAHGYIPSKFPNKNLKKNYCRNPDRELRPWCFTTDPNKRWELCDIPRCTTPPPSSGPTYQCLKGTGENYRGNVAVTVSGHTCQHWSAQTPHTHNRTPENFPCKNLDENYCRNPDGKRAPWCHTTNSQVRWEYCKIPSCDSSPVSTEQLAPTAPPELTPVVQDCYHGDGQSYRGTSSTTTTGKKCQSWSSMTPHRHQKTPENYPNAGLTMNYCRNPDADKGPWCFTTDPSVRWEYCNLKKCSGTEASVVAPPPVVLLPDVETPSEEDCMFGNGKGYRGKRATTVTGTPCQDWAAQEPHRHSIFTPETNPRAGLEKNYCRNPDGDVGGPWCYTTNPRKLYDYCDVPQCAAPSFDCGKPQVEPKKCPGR
Method: The anti-trypsin, anti-plasmin, anti-kallikrein and anti-thrombin activities were determined according to the method of Muramatsu et al. [M. Muramatus, T. Onishi, S. Makino, Y. Hayashi and S. Fujii, J. of Biochem., 58, 214 (1965)]. […] The compound No. corresponds to the compound number shown in Examples.

[8] = molar concentration inhibiting 50% of TAME hydrolysis

| Compound | IC50 [1, 8] | IC50 [2] | IC50 [3] | Inhibition of complement mediated hemolysis (%) ([4]; 1 × 10^-5) | Inhibition of complement mediated hemolysis (%) ([4]; 1 × 10^-6) | Inhibition of complement mediated hemolysis (%) ([4]; 1 × 10^-7) | IC50 [5] | IC50 [6] | IC50 [7] | IC50 [1] |
| --- | --- | --- | --- | --- | --- | --- | --- | --- | --- | --- |
| N=C(N)c1ccc2cc(OC(=O)c3ccc(CNC(=O)C(N)COCc4ccccc4)o3)ccc2c1 (stereo not drawn) [compound 36] | 300 nM | 4000 nM | 600 nM | 100% | 100% | 68% | 500 nM | 200 nM | 600 nM |  |
| CNC(=N)NCc1ccc(C(=O)Oc2ccc3cc(C(=N)N)ccc3c2)o1 [compound 6] | 2000 nM | 1000 nM | 400 nM | 100% | 100% | 100% | 500 nM | 4000 nM | 3000 nM |  |
| N=C(N)c1ccc2cc(OC(=O)c3ccc(CNC4=NCCN4)o3)ccc2c1 [compound 11] | 400 nM | 500 nM | 400 nM | 100% | 100% | 43% | 500 nM | 3000 nM | 2000 nM |  |
| N=C(N)c1ccc2cc(OC(=O)c3ccc(CCNC(=O)C4CCC(CN)CC4)o3)ccc2c1 (stereo not drawn) [compound 39] | 2000 nM | 4000 nM | 500 nM | 100% | 100% | 71% | 400 nM | 800 nM | 400 nM |  |
| N=C(N)c1ccc2cc(OC(=O)c3ccc(CNC(=O)C4CCC(CN)CC4)o3)ccc2c1 (stereo not drawn) [compound 38] | 80 nM | 3000 nM | 300 nM | 100% | 100% | 98% | 300 nM | 500 nM | 400 nM |  |
| N=C(N)c1ccc2cc(OC(=O)c3ccc(CN4CCOCC4)o3)ccc2c1 [compound 25] |  | 2000 nM | 2000 nM | 100% | 98% | 82% | 1000 nM | 700 nM | 600 nM | 3000 nM |
| N=C(N)c1ccc2cc(OC(=O)c3ccc(NC(=O)C4CCC(CN)CC4)o3)ccc2c1 (stereo not drawn) [compound 37] | 900 nM | 400 nM | 400 nM | 99% | 78% | 12% | 3000 nM | 700 nM | 400 nM |  |
